The values below are quoted from earlier work in patent US5266487A, “Apparatus for the treatment of lignocellulosic materials” (Knobbe, Martens, Olson & Bear, priority 1992, dated 1993).

As usually defined, the Km is the substrate concentration at which the rate is half of its maximum.

Where two headings read alike, the source gives them in different places.

The data set deals with alcohol oxidase (methanol oxidase), preferred enzyme from Hansenula polymorpha ATCC 34438 (Pichia angusta, UniProt P04841).
Chain of alcohol oxidase (methanol oxidase), preferred enzyme from Hansenula polymorpha ATCC 34438 (P04841 whole entry): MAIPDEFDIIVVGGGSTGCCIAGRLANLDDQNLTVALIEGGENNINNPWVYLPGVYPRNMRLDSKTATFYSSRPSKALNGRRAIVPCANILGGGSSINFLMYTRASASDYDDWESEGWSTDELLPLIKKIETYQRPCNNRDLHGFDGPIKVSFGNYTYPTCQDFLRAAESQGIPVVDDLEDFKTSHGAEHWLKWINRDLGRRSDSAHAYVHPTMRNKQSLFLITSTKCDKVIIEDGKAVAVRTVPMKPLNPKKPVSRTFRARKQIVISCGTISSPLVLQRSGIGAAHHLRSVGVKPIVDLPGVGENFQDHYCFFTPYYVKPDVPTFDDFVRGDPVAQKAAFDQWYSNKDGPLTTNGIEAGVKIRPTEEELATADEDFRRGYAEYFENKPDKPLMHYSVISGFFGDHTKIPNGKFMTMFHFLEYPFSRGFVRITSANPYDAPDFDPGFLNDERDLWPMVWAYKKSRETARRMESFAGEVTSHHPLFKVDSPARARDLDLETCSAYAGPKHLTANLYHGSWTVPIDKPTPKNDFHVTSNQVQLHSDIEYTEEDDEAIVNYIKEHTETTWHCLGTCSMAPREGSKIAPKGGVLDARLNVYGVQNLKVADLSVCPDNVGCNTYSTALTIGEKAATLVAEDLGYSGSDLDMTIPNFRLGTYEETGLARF

Turning to `CO` [methanol], the Km (read-out: Km methanol, see Van Dijken et al., Arch. Microbiol. 111, 137 (1976)) was 2000 µM. On to `O=O` [oxygen], for which, under “read-out: Km oxygen, see Van Dijken et al., Arch. Microbiol. 111, 137 (1976)”, the Km was 400 µM.
